Laboratory results: article PMC11288129, “Diversely evolved xibalbin variants from remipede venom inhibit potassium channels and activate PKA-II and Erk1/2 signaling” (BMC Biology, 2024)
“Also recorded” adds a separate entry of the source. Positions of bridges follow the written chain, without caps; N, C: chain ends. No end group written: not given here.

Test system: Erk1/2 (T202/Y204) in rat DRG neurons
Test: High-content imaging of pERK1/2 in DRG sensory neurons
Type: cell-based
Conditions: for pErk1/2 activation: 5 and 30 min, 0.005 to 0.8 µg/µL; for pErk1/2 response by neuron size: xibalbins 0.8 µg/µL
Experimental: To gauge sensory neuron activity in response to various activating stimuli, including electrical activity, phosphorylation state detection of protein kinase A type II (PKA-II) and MAP kinase Erk1/2 can act as surrogate measurements. Consequently, we tested for increased phosphorylation states in a concentration-dependent manner following exposure to xibalbins. Dissociated DRG neurons were cultured overnight and then exposed to increasing concentrations of the corresponding xibalbins for 5 min and 30 min, respectively. As a positive control, forskolin (Fsk) was also used to induce cAMP synthesis. The activity of PKA-II was monitored by antibodies directed against the phosphorylation site of the inhibitory regulatory subunits RIIα/β, which is exclusively accessible when the catalytic kinase domain is released during kinase activation. For measuring Erk1/2 activity, phospho-sites on Erk1/2 (T202/Y204) were monitored through immunofluorescence, as these sites are phosphorylated during activation. Cellular images were captured using HCI microscopy (Fig. 8A), and the average intensity of each phospho-antibody was quantified (Fig. 8B).
Fig. 8 A Representative images of rat DRG neurons stimulated with PBS (Ctrl) and xib1b (0.8 µg/µL). Cells were stained for UCHL1, pRII, pERK1/2, and Hoechst followed by fixation and staining with standard immunocytochemistry protocols. Green-encircled neurons indicate automatically selected objects. Scale bar: 100 µm. B Mean intensities of UCHL1, pRII, and pERK1/2. The same UCHL1 intensities were observed among tested groups. Forskolin (Fsk), an activator of adenylyl cyclase, was used as a positive control. Fsk at 6 µM concentration induced an increase in pRII and pERK1/2 intensities at 5 and 30 min. Number of analyzed cells per replica: 750 ± 200. Eight independent replicas. C–F Concentration responses of xibalbin toxins (0.005 to 0.8 µg/µL) and mean intensities of pRII and pERK1/2 at 5 min and 30 min. G–H Size versus pRII and pErk1/2 intensities of cells treated with 0.8 µg/µL of xib1 and xib13. Small-sized cells were responding to xibalbins. Statistical significance was assessed using one-way ANOVA with Dunnett’s post hoc test. Data represent mean ± S.E.M (standard error of the mean), n = 4, see “Methods” for details and Additional File 6: Table S2 for individual data values
Male Sprague Dawley rats (250–400 g, 8–16 weeks old) were obtained from Envigo. Rats were kept in 12 h of light/darkness cycles. All experiments were performed in accordance with the German animal welfare law with permission of the District Government for Nature and Environment, NRW (84–02.05.20.13.045, 4.18.003). Rats were scarified by slow inhalation of CO2 which was followed by decapitation. DRGs were extracted from rats, deheated, pooled, and incubated in Neurobasal A/B27 medium (Invitrogen, #12349–015) supplemented with B-27 (Invitrogen #17504), L-glutamine 1:400, L-glutamate 1:270.3, and penicillin/streptomycin 1:100 containing 0.2 U/mL collagenase P (collagenase P, Roche, #1213857) and incubated for 1 h at 37 °C, 5% CO2. DRGs were dissociated with pasteur pipettes and axon stumps were separated by BSA (Sigma-Aldrich, # A2153-100G) gradient centrifugation (14% BSA, 120 g, 8 min). Cells were resuspended in NBA medium, plated in 96-well imaging plate (Greiner BioOne Sensoplate, Black, #655896) precoated with poly-L-ornithine hydrochloride (0.1 mg/ml Sigma, #P2533)/laminin (5 µg/ml Invitrogen, #23017–015), and incubated overnight at 37 °C, 5% CO2.
DRGs were stimulated after overnight incubation. Compounds were prepared as tenfold concentrated stock solutions, diluted in PBS (PAA, cat# H15-002), in v-bottom plates; 50 µL media from culture wells were mixed with the […] stock solutions, and 50 µL added back to the respective wells. Stimulation was performed with automated multichannel pipette and cells were kept in heated block during the stimulation. […]

[1] = 30 min, 0.8 µg/µL (xib13 148 µM, q = 4.32; xib1 154 µM, q = 4.07)

| Sequence | pErk1/2 activation | increase in pErk1/2 signal (5 min, 0.8 µg/µL (148 µM), q = 4.54) | increase in pErk1/2 signal [1] | pErk1/2 response by neuron size |
| --- | --- | --- | --- | --- |
| KRSCIRRFGRCDHRPNDCCYNSSCRCNLWGSNCRCQRMGLFQKWGK (disulfide 4-19, 11-24, 18-35, 26-33) [xib13] | increase PKA-II and Erk1/2 sensitization signaling; also recorded: increased PKA-II and pErk1/2 activity | up to 2.5 fold | ≤ 2.3 fold | increased phosphorylation signals in both small-sized and large-sized sensory neurons |
| RLFCIRHHKYCGHRPKRCCSGLFCRCNTFGTNCRCQSKGALGKLI (disulfide 4-19, 11-24, 18-35, 26-33) [xib1] | increase PKA-II and Erk1/2 sensitization signaling; also recorded: increased PKA-II and pErk1/2 activity | – | 2.17 fold | increased phosphorylation signals in both small-sized and large-sized sensory neurons |
